Where no end group is shown, it is not given here. Where only a bound is given, the exact number is not on record here.

Assay [1] has as its system alveolar type II epithelial cells (T2 cells). Put plainly: Static and forced stretching culture of T2 cells on MMAC-coated silicone wells with immobilized proteins or peptides. The class given is cell-based. As for the experimental part:
A silicone well coated with MMAC was obtained by pouring 0.5 ml of ethanol solution of 50 μg/ml of MMAC (ISP, International Specialty Products, USA) into a silicone well with a groove of 20 mm×20 mm×10 mm, absorbing excess solution, and conducting air-drying.
Into the silicone wells coated by the method described in Example 1, 10 μg/ml of cell adhesion protein solution of fibronectin (FN), laminin-1 (LN), dissolved in 0.1 M triethanolamine buffer solution of pH 8.8, or 0.25 mg/ml of cell adhesion peptide solution of FIB-1, AG73 was poured respectively, and the reaction was conducted for at least several hours at 37° C. to bind and immobilize these proteins or peptides having cell adhesion activity (see Example 6 described later for particulars of immobilization). Subsequently, alveolar type II epithelial cell (T2 cells) suspension was poured, 5×10^4/cm^2 per unit area, and the culture was started in a CO2 culture apparatus.
T2 cells, 2×10^5/cm^2 per unit area, were seeded on the silicone well wherein the cell adhesion proteins or peptides were immobilized, which had been prepared in an almost same manner as that of Example 2, and static culture was conducted for 1 day. After confirming that the seeded cells confluently spread all over the culture face, horizontal cell stretching was forcibly started at the stretching degree of twenty five percents and at the frequency of 15 times per minute, by using cell culture stretching apparatus (Scholar Tec), and the culture was continued one more day. After the culture was finished, photographs of cell adhesion state were taken with a phase contrast microscope (FIG. 2, top 4 rows).
T2 cells, 5×10^4/cm^2 per unit area, were seeded on the silicone well wherein the cell adhesion proteins or peptides were immobilized, which had been prepared in an almost same manner as that of Example 2, and static culture was conducted for 3 days. T2 cells grew in a manner similar to that shown in FIG. 1, 3d (results are not shown because they are overlapping). Then, the cells were subjected to the same stimuli of forced stretching as in Example 1, and the culture was continued one more day. After the culture was finished, photographs of cell adhesion state were taken with a phase contrast microscope (FIG. 2, middle 4 rows) (FN, 3dC-1dS, LN, 3dC-1dS, FIB-1, 3dC-1dS, and AG-73, 3dC-1dS).
Forced stretching culture was conducted for 3 days in an almost same manner as stretching culture of Example 4. After the culture was finished, photographs of cell adhesion state were taken with a phase contrast microscope (FIG. 2, bottom 4 rows) (FN, 3dC-3dS, LN, 3dC-3dS, FIB-1, 3dC-3dS, and AG-73, 3dC-3dS).

Assay [2] shares this test system. The following applies: known, usual requirement; cited from earlier work.
For assay [3] the test system is unchanged. Put plainly: Inhibition of T2 cell adhesion to immobilized cell adhesion peptide substrates by heparin treatment. The class given is cell-based. As to conditions: 24-hour culture. As for the experimental part: 100 μg/ml of heparin solution was poured into a well prepared according to the method in Example 6, wherein the cell adhesion peptides were immobilized, and the incubation was conducted for 2 hours. The heparin solution was removed after heparin bound to the immobilized cell adhesion peptides, and T2 cell suspension was seeded on the well.
It is theoretically shown that after the cell adhesion peptides first bind to heparin and are covered with heparin, the cell adhesion receptors having heparin-like sugar chain (heparan sulfate) present on the cell surface, in other words, syndecan, a protein that belongs to heparan sulfate proteoglycan, cannot bind to the cell adhesion peptides by using the sugar chain part of the heparan sulfate, thereby the cell adhesion is inhibited.

Assay [4] shares this test system. Briefly: Inhibition by free cell adhesion peptides of T2 cell adhesion to coated cell adhesion proteins FN, Col I, LN, VN. The class given is cell-based. As to conditions: free peptide 0.25 mg/ml; serum-free, 1 day.
The test system is the same in assay [5]. Briefly: Binding strength (affinity) of immobilized LN peptides to T2 cells relative to immobilized FIB-1 (mixed immobilization, free FIB-1 competition). It is filed as cell-based. More on the design: key to Binding strength to T2 cells, Comprehensive evaluation: AA: extremely strongly binding/adhering; A: strongly binding/adhering; B: intermediately binding/adhering (as the same degree as FIB-1 peptide); C: more weakly binding/adhering than FIB-1 peptide. In short, it runs like this: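 MMAC-coated wells coated with FIB-1 (0.25 mg/ml) mixed with LN peptide (e.g. AG73) at varied ratios; free FIB-1 competition. T2 cells cultured serum-free 1 day; adhesion expressed relative to immobilized FIB-1 (100%). Relative binding strength derived from mixing ratio at transitional midpoint.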

The test system is the same in assay [6]. Briefly: Inhibition of T2 cell adhesion by free peptide different from the immobilized peptide substrate. It is filed as cell-based. The procedure, abridged:
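T2 cells cultured on immobilised peptide substrate, with a free peptide differing from the immobilised one added to the medium. Adhesion inhibition read as competition for syndecan binding.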

Assay [7] has the same test system. Briefly: Time course of cell adhesion/spreading of T2 cells on immobilized cell adhesion peptide substrates. The class given is cell-based. The following applies: 24-hour culture. Here is the method:
Culture was conducted by using the cell adhesion peptides immobilized on a well and T2 cells, for 1-24 hours according to the method in Example 8.
As cell adhesion peptides, AG73 was used in B, E and M, FIB-1 was used in C, L and O, A3G72 was used in F, A4G82 was used in G and N, A5G71 was used in H, A5G77 was used in I, hA3G75 was used in J, and hA3G83 was used in K; FN was used as a standard substance in A and D.

For the sequence YAVTGRGDSPAS [reference compound], the “Reorientation of T2 cells under forced stretching” value in assay [1] (1 day static, 1 day stretching (1dC-1dS), 25 percent, 15 times per minute) is “spread in an elongated shape to a direction perpendicular to the direction of forced stretching”. Further, the “Change of type II epithelial cells into a shape like type I epithelial cells” value in assay [1] (3 days static, 3 days stretching (3dC-3dS)) was “less observed”. The “Concentration of free FIB-1 peptide required to inhibit adhesion to FN” value in assay [2] is at least 1 mg/mL. Besides, in assay [3] (100 μg/ml heparin 2 hours), the “Inhibition of cell adhesion to immobilized peptide by heparin treatment” value was “no inhibition”. Also, the “Inhibition degree of cell adhesion, Heparin” value in assay [3] (immobilized peptide treated with 100 μg/ml heparin 2 hours) is “No”. The “Inhibition of adhesion of T2 cells to FN, Col I, LN and VN by free peptide” value in assay [4] is “does not exhibit inhibitory effect”. The “Binding strength to T2 cells, Comprehensive evaluation” value in assay [5] (classification relative to FIB-1 peptide) was “B”. Further, the “Binding strength to T2 cells, Ratio to FIB-1” value in assay [5] (inverse of mixing ratio at transitional midpoint, FIB-1 0.25 mg/ml, MMAC-coated well) is “(1)”. Besides, the “Inhibition by free peptide of T2 cell adhesion to immobilized AG73” value in assay [6] (AG73 (etc.) immobilized) is “no inhibition occurred”. The “Inhibition by free peptide of T2 cell adhesion to immobilized AG73 and A4G82 peptides” value in assay [6] (AG73 and A4G82 immobilized) was “could not inhibit”. For the same sequence, the “Inhibition by free peptide of T2 cell adhesion to immobilized AG81.2 and AG73T” value in assay [6] (AG81.2 and AG73T immobilized) was “inhibited the adhesion”. The “Inhibition by free peptide of T2 cell adhesion to immobilized FIB-1” value in assay [6] (FIB-1 immobilized) is “competitively inhibited”. Further, in assay [7], the “Cell adhesion/spreading on immobilized peptide” value is “almost all cells had finished spreading”.

Source of the values: patent US8304238B2, “Cell culture medium and immobilized preparation of cell adhesion protein or peptide” (Nat'l Institute for Environmental Studies, priority 2003, dated 2012).
